In patent US20250049778A1, “CRYSTALLINE FORM OF GLP-1 RECEPTOR AGONIST AND PREPARATION METHOD THEREFOR” (JIANGSU HENGRUI PHARMACEUTICALS CO., LTD., priority 2021, published 2025):

Columns and labels:
Type in all cases: physicochemical
[1] = Hygroscopicity of crystal forms by dynamic vapor sorption (DVS) at 25° C.; details: for Crystal form after DVS: two cycles
Description: Surface Measurement Systems advantage 2 is used for detection at 25° C. The humidity is 50%-95%-0%-95%-50% RH. The step is 10%. The criterion is that the mass change dM/dT for each step is less than 0.002%. TMAX is 360 min. Two cycles are carried out.
Surface Measurement Systems intrinsic DVS was used at 25° C. The observed humidity ranged from 0% to 95%. The step was 10%. The criterion was that the mass change dM/dT for each step was less than 0.002%. TMAX was 360 min. Two cycles were carried out.

[2] = Stability of crystal forms placed open under illumination, high temperature and high humidity, 30 days; details: for Physical and chemical stability (summary): illumination, 40° C. and 60° C., 75% RH and 92.5% RH
Source text: The sampling and investigation period was 30 days.

[3] = Long-term/accelerated stability, sealed with aluminum foil bag
Source text: The results were as shown below.

[4] = Illumination (4500 Lux), 5 days
[5] = Illumination (4500 Lux), 10 days
[6] = Illumination (4500 Lux), 30 days

O=C(O)c1ccc2nc(CN3CCC(c4cccc5c4O[C@@H](c4ccc(Cl)cc4F)CO5)CC3)n(C[C@@H]3CCO3)c2c1 [Crystal form A of Compound A, 2-((4-((S)-3-(4-chloro-2-fluorophenyl)-2,3-dihydrobenzo[b][1,4]dioxan-5-yl)piperidin-1-yl)methyl)-1-(((S)-oxetan-2-yl)methyl)-1H-benzo[d]imidazole-6-carboxylic acid]
Hygroscopic weight gain 0.0% RH to 80.0% RH [1]: 0.65% | Crystal form after DVS [1]: Unchanged | Purity % ([2]; 40° C., 5 days): 98.8% | Purity % ([2]; 40° C., 10 days): 98.8% | Purity % ([2]; 40° C., 30 days): 98.8% | Purity % ([2]; 60° C., 5 days): 98.8% | Purity % ([2]; 60° C., 10 days): 98.7% | Purity % ([2]; 60° C., 30 days): 98.8% | Purity % ([2]; 75% RH, 5 days): 98.7% | Purity % ([2]; 75% RH, 10 days): 98.7% | Purity % ([2]; 75% RH, 30 days): 98.7% | Purity % ([2]; 92.5% RH, 5 days): 98.8% | Purity % ([2]; 92.5% RH, 10 days): 98.7% | Purity % ([2]; 92.5% RH, 30 days): 98.8% | Purity % [2, 4]: 98.7% | Purity % [2, 5]: 98.7% | Purity % [2, 6]: 98.8% | Purity % ([2]; Initial condition, 0 days): 98.7% | Physical and chemical stability (summary) ([2]; 30 days): good physical and chemical stability | Purity % ([3]; 25° C./60% RH, 1 month): 99.5% | Purity % ([3]; 25° C./60% RH, 3 months): 99.5% | Purity % ([3]; 25° C./60% RH, 6 months): 99.5% | Crystal form ([3]; 25° C./60% RH, up to 6 months): Unchanged | Purity % ([3]; 40° C./75% RH, 1 month): 99.5% | Purity % ([3]; 40° C./75% RH, 3 months): 99.5% | Purity % ([3]; 40° C./75% RH, 6 months): 99.5% | Crystal form ([3]; 40° C./75% RH, up to 6 months): Unchanged | Purity % ([3]; Initial condition): 99.5% | Physical and chemical stability (summary) ([3]; placed for 6 months under long-term accelerated conditions): good physical and chemical stability

O=C(O)c1ccc2nc(CN3CCC(c4cccc5c4O[C@@H](c4ccc(Cl)cc4F)CO5)CC3)n(C[C@@H]3CCO3)c2c1 [Crystal form D of Compound A, 2-((4-((S)-3-(4-chloro-2-fluorophenyl)-2,3-dihydrobenzo[b][1,4]dioxan-5-yl)piperidin-1-yl)methyl)-1-(((S)-oxetan-2-yl)methyl)-1H-benzo[d]imidazole-6-carboxylic acid]
Hygroscopic weight gain 0.0% RH to 80.0% RH [1]: 1.95% | Crystal form after DVS [1]: Unchanged | Purity % ([2]; 40° C., 5 days): 98.4% | Purity % ([2]; 40° C., 10 days): 98.5% | Purity % ([2]; 40° C., 30 days): 98.5% | Purity % ([2]; 60° C., 5 days): 98.5% | Purity % ([2]; 60° C., 10 days): 98.6% | Purity % ([2]; 60° C., 30 days): 98.6% | Purity % ([2]; 75% RH, 5 days): 98.5% | Purity % ([2]; 75% RH, 10 days): 98.6% | Purity % ([2]; 75% RH, 30 days): 98.5% | Purity % ([2]; 92.5% RH, 5 days): 98.6% | Purity % ([2]; 92.5% RH, 10 days): 98.6% | Purity % ([2]; 92.5% RH, 30 days): 98.5% | Purity % [2, 4]: 98.5% | Purity % [2, 5]: 98.6% | Purity % [2, 6]: 98.6% | Purity % ([2]; Initial condition, 0 days): 98.5% | Physical and chemical stability (summary) ([2]; 30 days): good physical and chemical stability | Purity % ([3]; 25° C./60% RH, 1 month): 98.6% | Purity % ([3]; 25° C./60% RH, 2 months): 98.6% | Purity % ([3]; 25° C./60% RH, 3 months): 98.5% | Crystal form ([3]; 25° C./60% RH, up to 3 months): Unchanged | Purity % ([3]; 40° C./75% RH, 1 month): 98.6% | Purity % ([3]; 40° C./75% RH, 2 months): 98.4% | Purity % ([3]; 40° C./75% RH, 3 months): 98.3% | Crystal form ([3]; 40° C./75% RH, up to 3 months): Unchanged | Purity % ([3]; Initial condition): 98.5% | Physical and chemical stability (summary) ([3]; placed for 3 months under long-term accelerated conditions): good physical and chemical stability
